Measurements as given in US20120244120A1, “INHIBITORS OF HEMOPOIETIC CELL KINASE (P59-HCK) AND THEIR USE IN THE TREATMENT OF INFLUENZA INFECTION” (priority 2009, published 2012).
Marks after values point to notes of the source that are not given here.

Key:
c-Src enzyme = c-Src enzyme (Homo sapiens, UniProt P12931); experiment: c-Src enzyme assay (Z'-LYTE FRET); assay type: biochemical; conditions: ATP 200 μM
[1] = test system: influenza (H1N1A/PR/8/34); experiment: organism not typed; assay type: cell-based
HCK enzyme = HCK enzyme (Homo sapiens, UniProt P08631); experiment: HCK enzyme assay (Z'-LYTE FRET); assay type: biochemical; conditions: 2 hr pre-incubation, ATP 15 μM
Sequence of HCK enzyme (P08631 22-526): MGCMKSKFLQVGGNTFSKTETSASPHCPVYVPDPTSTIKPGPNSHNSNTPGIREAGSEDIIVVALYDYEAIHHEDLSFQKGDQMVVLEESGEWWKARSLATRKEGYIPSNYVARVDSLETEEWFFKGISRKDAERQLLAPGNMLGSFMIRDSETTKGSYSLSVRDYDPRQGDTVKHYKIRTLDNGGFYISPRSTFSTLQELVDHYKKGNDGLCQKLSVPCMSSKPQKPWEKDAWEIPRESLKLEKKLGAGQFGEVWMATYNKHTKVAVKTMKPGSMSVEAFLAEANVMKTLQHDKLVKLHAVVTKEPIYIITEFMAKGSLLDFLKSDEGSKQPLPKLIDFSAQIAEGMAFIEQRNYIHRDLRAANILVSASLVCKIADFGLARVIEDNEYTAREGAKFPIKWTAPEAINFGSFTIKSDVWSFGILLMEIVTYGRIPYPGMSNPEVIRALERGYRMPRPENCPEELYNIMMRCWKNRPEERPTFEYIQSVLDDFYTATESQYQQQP

[2] = test system: influenza (H3N1 Memphis 71); conditions: mouse, in vivo
p38 MAPKα (MAPK14) = p38 MAPKα (MAPK14) (Homo sapiens, UniProt Q16539); experiment: p38α enzyme assay (Z'-LYTE FRET, via MAPKAP-K2 activation); assay type: biochemical; conditions: 2 hr pre-incubation, ATP 10 μM
Sequence of p38 MAPKα (MAPK14) (Q16539 whole entry): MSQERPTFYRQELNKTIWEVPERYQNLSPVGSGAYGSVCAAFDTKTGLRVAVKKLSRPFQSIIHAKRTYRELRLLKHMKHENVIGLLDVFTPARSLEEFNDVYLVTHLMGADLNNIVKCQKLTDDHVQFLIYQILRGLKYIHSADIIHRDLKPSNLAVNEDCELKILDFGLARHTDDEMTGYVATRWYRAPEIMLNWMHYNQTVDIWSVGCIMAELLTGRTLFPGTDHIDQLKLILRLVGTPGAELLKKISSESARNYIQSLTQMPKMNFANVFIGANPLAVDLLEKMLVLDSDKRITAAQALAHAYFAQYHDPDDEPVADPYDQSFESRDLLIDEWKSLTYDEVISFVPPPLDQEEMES

MDCK cells = experiment: MTT assay (MDCK cells); assay type: cell-based, canine; conditions: final concentration of 10 μg/mL
Procedure: The cells were then washed with 10% FCS DMEM, and incubated in 10% FCS DMEM containing 0.25 mg/mL MTT for 2 hr. The media were then removed, 200 μL of DMSO added to each well and the plates were shaken lightly for 1 hr prior to reading the absorbance at 550 nm.

[3] = MDCK; read-out: IC50 (nM) Influenza-Induced CPE
[4] = Influenza A virus, MDCK, read-out: IC50 (nM) Influenza-Induced CPE
[5] = Influenza A virus; MDCK cells, H1N1 A/PR/8/34, MOI 0.1; non-linear regression; read-out: IC50 (nM) Influenza-Induced CPE

Sequence of c-Src enzyme (P12931 whole entry): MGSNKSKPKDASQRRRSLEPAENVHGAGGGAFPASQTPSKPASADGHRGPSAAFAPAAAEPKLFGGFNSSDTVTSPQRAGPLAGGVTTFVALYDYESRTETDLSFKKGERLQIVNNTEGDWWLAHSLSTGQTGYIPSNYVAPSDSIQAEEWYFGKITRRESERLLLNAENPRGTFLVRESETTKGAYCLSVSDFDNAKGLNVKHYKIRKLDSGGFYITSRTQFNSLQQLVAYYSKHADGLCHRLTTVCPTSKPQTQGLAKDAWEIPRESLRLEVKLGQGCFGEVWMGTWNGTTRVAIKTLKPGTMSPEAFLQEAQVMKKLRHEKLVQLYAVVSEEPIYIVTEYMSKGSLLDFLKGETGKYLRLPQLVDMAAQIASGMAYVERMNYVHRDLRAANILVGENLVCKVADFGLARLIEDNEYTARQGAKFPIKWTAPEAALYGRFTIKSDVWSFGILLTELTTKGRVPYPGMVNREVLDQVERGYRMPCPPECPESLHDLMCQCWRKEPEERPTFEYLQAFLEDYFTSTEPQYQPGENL

Work on `CNC(=O)Nc1cnccc1COc1ccc(NC(=O)Nc2cc(C(C)(C)C)nn2-c2ccc(C)cc2)c2ccccc12` [Example 34, 1-(4-((3-Methylureidopyridin-4-yl)methoxy)naphthalen-1-yl)-3-(3-tert-butyl-1-p-tolyl-1H-pyrazol-5-yl)urea] yielded an IC50 (c-Src enzyme) of over 17300 nM, an IC50 [1, 3] of over 0.2 µg/mL and an IC50 (HCK enzyme) of 742 nM.
`COCC(=O)Nc1cc(COc2ccc(NC(=O)Nc3cc(C(C)(C)C)nn3-c3ccc(C)cc3)c3ccccc23)ccn1` [Example 1, N-(4-((4-(3-(3-tert-Butyl-1-p-tolyl-1H-pyrazol-5-yl)ureido)naphthalen-1-yloxy)methyl)pyridin-2-yl)-2-methoxyacetamide] was tested, and the IC50 [1, 4] was 6 nM, the Lung viral load [2] was 8.1 ± 1.9 pfu/g lung tissue (×10^6) and the “decrease in viral load versus vehicle controls” value [2] was “approximately 80%”.
Compound `COCC(=O)Nc1cc(COc2ccc(NC(=O)Nc3cc(C(C)(C)C)nn3-c3ccc(CO)cc3)c3ccccc23)ccn1` [Example 49, N-(4-((4-(3-(3-tert-Butyl-1-(4-(hydroxymethyl)phenyl)-1H-pyrazol-5-yl)ureido)naphthalen-1-yloxy)methyl)pyridin-2-yl)-2-methoxyacetamide] has an IC50 (c-Src enzyme) of 155 nM, an IC50 (p38 MAPKα (MAPK14)) of 5 nM and an IC50 [1, 5] of 32 nM. It also gave an IC50 (HCK enzyme) of 24 nM.
For `Cc1ccc(-n2nc(C(C)(C)C)cc2NC(=O)Nc2ccc(OCCc3ccnc(NC(N)=O)c3)c3ccccc23)cc1` [Example 40, 4-(2-(4-(3-(3-tert-Butyl-1-p-tolyl-1H-pyrazol-5-yl)ureido)naphthalen-1-yloxy)ethyl)-3-(pyridin-2-yl)urea], the IC50 (c-Src enzyme) was over 17300 nM, the IC50 [1, 4] was 97 nM and the IC50 (HCK enzyme) was 276 nM.
For `CNC(=O)Nc1cc(COc2ccc(NC(=O)Nc3cc(C(C)(C)C)nn3-c3ccc(C)cc3)c3ccccc23)ccn1` [Example 2, Methyl 4-((4-(3-(3-tert-butyl-1-p-tolyl-1H-pyrazol-5-yl)ureido)naphthalen-1-yloxy)methyl)pyridin-2-ylurea], the IC50 (c-Src enzyme) was 45 nM, the IC50 (p38 MAPKα (MAPK14)) was 2.8 nM and the IC50 [1, 5] was 11 nM. The IC50 (HCK enzyme) was 17 nM.
`Cc1ccc(-n2nc(C(C)(C)C)cc2NC(=O)Nc2ccc(OCc3ccnc(NC(=O)C[S+](C)[O-])c3)c3ccccc23)cc1` (stereo not shown) [Example 20, N-(4-((4-(3-(3-tert-Butyl-1-p-tolyl-1H-pyrazol-5-yl)ureido)naphthalen-1-yloxy)methyl)pyridin-2-yl)-2-(methylsulfinyl)acetamide] was tested, and the IC50 (c-Src enzyme) was 161 nM, the IC50 [1, 4] was 486 nM and the IC50 (HCK enzyme) was 176 nM.
`Cc1ccc(-n2nc(C(C)(C)C)cc2NC(=O)Nc2ccc(OCc3ccnc(NC(=O)CCCN(C)C)c3)c3ccccc23)cc1` [Example 16, N-(4-((4-(3-(3-tert-Butyl-1-p-tolyl-1H-pyrazol-5-yl)ureido)naphthalen-1-yloxy)methyl)pyridin-2-yl)-4-(dimethylamino)butanamide] showed an IC50 (c-Src enzyme) of 28 nM, an IC50 (p38 MAPKα (MAPK14)) of 10.3 nM and an IC50 [1, 5] of 166 nM. It also gave an IC50 (HCK enzyme) of 20 nM.
`COCCOCC(=O)Nc1cnccc1COc1ccc(NC(=O)Nc2cc(C(C)(C)C)nn2-c2ccc(C)cc2)c2ccccc12` [Example 36, N-(4-((4-(3-(3-tert-Butyl-1-p-tolyl-1H-pyrazol-5-yl)ureido)naphthalen-1-yloxy)methyl)pyridin-3-yl)-2-(2-methoxyethoxy)acetamide] gave an IC50 (c-Src enzyme) of 9330 nM, an IC50 ([1]; MDCK, read-out: IC50 (nM) Influenza-Induced CPE) of over 0.2 µg/mL and an IC50 (HCK enzyme) of over 1570 nM.
`Cc1ccc(-n2nc(C(C)(C)C)cc2NC(=O)Nc2ccc(OCc3ccnc(NC(=O)CS(=O)(=O)CCN4CCOCC4)c3)c3ccccc23)cc1` [Example 32, N-(4-((4-(3-(3-tert-Butyl-1-p-tolyl-1H-pyrazol-5-yl)ureido)naphthalen-1-yloxy)methyl)pyridin-2-yl)-2-(2-morpholinoethylsulfonyl)acetamide] showed an IC50 (c-Src enzyme) of 111 nM, an IC50 (p38 MAPKα (MAPK14)) of 1 nM and an IC50 [1, 3] of over 0.04 µg/mL. The IC50 (HCK enzyme) was 183 nM.
In the case of `Cc1ccc(-n2nc(C(C)(C)C)cc2NC(=O)Nc2ccc(OCc3ccnc(NC(=O)CCS(C)(=O)=O)c3)c3ccccc23)cc1` [Example 17, N-(4-((4-(3-(3-tert-Butyl-1-p-tolyl-1H-pyrazol-5-yl)ureido)naphthalen-1-yloxy)methyl)pyridin-2-yl)-3-(methylsulfonyl)propanamide], the IC50 (c-Src enzyme) is reported as 149 nM, the IC50 (p38 MAPKα (MAPK14)) is reported as 2.7 nM and the IC50 [1, 5] is reported as 64 nM. The IC50 (HCK enzyme) was 60 nM.
`COCCNC(=O)CNC(=O)Nc1cc(COc2ccc(NC(=O)Nc3cc(C(C)(C)C)nn3-c3ccc(C)cc3)c3ccccc23)ccn1` [Example 15, 2-(3-(4-((4-(3-(3-tert-Butyl-1-p-tolyl-1H-pyrazol-5-yl)ureido)naphthalen-1-yloxy)methyl)pyridin-2-yl)ureido)-N-(2-methoxyethyl)acetamide] gave an IC50 (c-Src enzyme) of 28 nM, an IC50 [1, 3] of over 0.2 µg/mL and an IC50 (HCK enzyme) of 65 nM. For the same compound, the “MTT assay 4 hr” value (MDCK cells; 4 hr) was “−ve (<30% = −ve)” and the “MTT assay 24 hr” value (MDCK cells; 24 hr) was “−ve (<30% = −ve)”.
